According to US20140315956A1, “SMALL MOLECULE INHIBITORS OF IL-6 AND USES THEREOF” (NATIONWIDE CHILDREN'S HOSPITAL, priority 2011, published 2014):
Several values for one entry are separate records, joined by “and”; a condition that tells them apart may be missing. Equal values may be shown once. Read-outs that look alike come from different tables or passages of the source.

Molecular target: T1, gp130 extracellular domain (recombinant gp130-Fc-HA) (Homo sapiens, UniProt P40189)
T1 construct: purified gp130 (amino residue 18-615); made in house; host or cells: HEK293T (plasmid from Dr. John J. Krolewski)
T1 sequence (P40189 18-615): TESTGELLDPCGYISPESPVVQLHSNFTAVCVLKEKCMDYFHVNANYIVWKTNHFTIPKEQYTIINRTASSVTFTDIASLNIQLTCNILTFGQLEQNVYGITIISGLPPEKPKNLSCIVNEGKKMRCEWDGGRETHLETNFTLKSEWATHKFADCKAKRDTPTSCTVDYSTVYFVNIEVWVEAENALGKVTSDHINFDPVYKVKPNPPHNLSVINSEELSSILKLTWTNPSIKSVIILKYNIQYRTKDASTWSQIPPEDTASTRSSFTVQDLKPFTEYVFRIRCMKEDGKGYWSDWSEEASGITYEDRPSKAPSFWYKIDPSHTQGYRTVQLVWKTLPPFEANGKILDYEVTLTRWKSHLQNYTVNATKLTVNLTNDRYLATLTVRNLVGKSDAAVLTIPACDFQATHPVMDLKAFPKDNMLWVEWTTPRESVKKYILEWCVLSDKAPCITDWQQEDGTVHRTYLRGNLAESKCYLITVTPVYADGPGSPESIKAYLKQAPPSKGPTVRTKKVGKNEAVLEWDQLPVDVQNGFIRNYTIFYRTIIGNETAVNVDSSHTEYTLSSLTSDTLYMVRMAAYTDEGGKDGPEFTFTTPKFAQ
Test: Surface plasmon resonance direct binding to gp130-Fc-HA
Protocol: HEK293T cells were grown in media containing DMEM+10% fetal bovine serum (FBS),100 U/ml penicillin and […] streptomycin (Invitrogen) in a humidified 37° C. incubator with 5% CO2. Plasmid DNA expressing gp130-Fc-HA was transfected in the form of calcium phosphate precipitate into HEK293T cells (ten T75 flasks containing 5.5×10^6 cells). The supernatant was harvested sixty hours post transfection and centrifuged to remove residual cells and adjusted to pH 8.0. The supernatant was passed through a 0.45 μm filter. The gp130-Fc-HA tagged protein was immunoprecipitated using anti-HA affinity matrix (Roche Applied Bioscience).A one milliliter column containing anti-HA affinity matrix was equilibrated with 20 mM Tris-HCl, 0.1M NaCl, 0.1 mM EDTA (pH 8.0). The supernatant was applied to the equilibrated column and the column was washed successively with 20 mM Tris-HCl, 1M NaCl (pH 8.0). Bound protein was eluted with HA peptide dissolved in equilibration buffer. The column was regenerated with 0.1 M glycine (pH 2.0). Fractions containing recombinant protein were pooled, dialyzed against HBS buffer [10 mM HEPES (pH 7.4), 0.15 M NaCl, 3 mM EDTA, 0.005% P20] and concentrated by Centricon 30 (Amicon) centrifugation. Protein concentration was determined using Bradford protein assay reagent (Pierce), with bovine serum albumin (BSA, Fisher Scientific) as a standard. The purified recombinant gp130 protein was analyzed using SDS-PAGE and immunoblotting.
Surface plasmon resonance (SPR) analysis was performed using BIAcore T100. Recombinant gp130-Fc-HA was cross-linked to the flow cell on a carboxymethylated dextran matrix of a CM5 sensor chip (BIAcore) using standard amino group coupling methods according to the manufacturer's instructions. Sodium acetate (10 mM, pH 3.5) gave the best immobilization of the protein on the chip surface and unreactive groups on the chip were blocked by ethanolamine according to the manufacturer's instructions. Approximately 5000 resonance units (RU) of gp130-Fc-HA were cross-linked to the flow cell. HBS+1% DMSO were used in all buffers (running and sample) to avoid background response due to differences in buffer refractive index. For the equilibrium analysis, various concentrations of MDL-A, 1, and 2 were injected for a period of 2 min at a flow rate of 30 μl/min, in series, into flow cells containing covalently bound gp130-fc-HA and reference flow cell. Bound ligand (MDL-A, 1, and 2) in each assay was removed by passing 10 mM glycine (pH 2.2) over the chip surface. Biacore T100 Evaluation 2.0 was used for all interaction analyses. The steady-state equilibrium response (RUeq) was determined from the reference-subtracted sensogram. The kinetics parameter was calculated according to a 1:1 Langmuir binding model (A+B ? AB) by direct fitting of ligand binding sensor grams at multiple concentrations. The dissociation equilibrium constant is defined as dissociation constant (KD)=dissociation rate constant (kd)/association rate constant (ka). KD was determined by scattered analysis of equilibrium-state data obtained at different concentrations of analogues.
To examine the direct binding and calculation of equilibrium dissociation constant (KD) of MDL-A analogues with gp130 extracellular domain, surface plasmon resonance analysis was done. Protein was covalently cross linked to the dextran matrix of the biosensor chip CM5. Successively, various concentrations of MDL-A and MDL-A analogues were injected into the flow cells containing bound protein and no protein (reference). Interactions were monitored in real time and KD values were calculated by reference-substrated sensogram.
To examine the direct binding and calculate the equilibrium dissociation constant (KD) of MDL-A analogues with gp130 extracellular domain, surface plasmon resonance analysis was performed. Surface plasmon resonance (SPR) analysis was performed using a BIAcore T100. […]

## CCCCC1=C(C)C(=O)[C@@](C)(CN2c3ccccc3[C@]3(O)CCO[C@H]23)C1=O [MDL-A, (+)-Madindoline A, reference compound]
gp130 extracellular domain, Biacore evaluation software 2.0, read-out: KD
  Kd: 288 µM
Values in running text and figure legend, read-out: dissociation constant (KD)
  Kd: ~300 µM and ~290 µM
